Assay results: ChEMBL document CHEMBL3046588, “Design, synthesis, and in vitro evaluation of cytotoxic activity of new substituted 1,4-benzoquinones and hydroquinones” (2007)

How the values were obtained:
Assay type in all cases: functional
[1] = Cytotoxicity against Homo sapiens (human) colon cancer cells after 48 hr by SRB assay; settings: Cancer cell lines
[2] = Cytotoxicity against Homo sapiens (human) CNS cancer cells after 48 hr by SRB assay; settings: Cancer cell lines
[3] = Cytotoxicity against Homo sapiens (human) breast cancer cells after 48 hr by SRB assay; settings: Cancer cell lines; for LC50 (concentration giving 50% net cell kill): pooled result: one value given for 9 cell lines, strains, targets or settings
[4] = Cytotoxicity against Homo sapiens (human) prostate cancer cells after 48 hr by SRB assay; settings: Cancer cell lines
[5] = Cytotoxicity against Homo sapiens (human) renal cancer cells after 48 hr by SRB assay; settings: Cancer cell lines
NCI-H460 = assay: Cytotoxicity against Homo sapiens (human) NCI-H460 cells assessed as cellular growth after 48 hr by Alamar blue assay; design: concentration or dose not given beside the values
[6] = Cytotoxicity against Homo sapiens (human) non-small cell lung cancer cells after 48 hr by SRB assay; settings: Cancer cell lines
[7] = Cytotoxicity against Homo sapiens (human) melanoma cellsafter 48 hr by SRB assay; settings: Melanoma cell
MCF7 = assay: Cytotoxicity against Homo sapiens (human) MCF7 cells assessed as cellular growth after 48 hr by Alamar blue assay; design: concentration or dose not given beside the values
[8] = Cytotoxicity against Homo sapiens (human) leukemia cells after 48 hr by SRB assay; settings: Leukemia cell
SF-268 = assay: Cytotoxicity against Homo sapiens (human) SF268 cells assessed as cellular growth after 48 hr by Alamar blue assay; design: concentration or dose not given beside the values
[9] = Cytotoxicity against Homo sapiens (human) ovarian cancer cells after 48 hr by SRB assay; settings: Cancer cell lines

SMILES | GI50 [1] | TGI [1] | GI50 [2] | TGI [2] | GI50 [3] | TGI [3] | LC50 (concentration giving 50% net cell kill) [3] | GI50 [4] | TGI [4] | GI50 [5] | TGI [5] | Activity (NCI-H460) | GI50 [6] | TGI [6] | GI50 [7] | TGI [7] | Activity (MCF7) | GI50 [8] | TGI [8] | Activity (SF-268) | other results
O=C1C=CC(=O)C(c2cc(-c3ccc(Cl)cc3)nn2-c2ccccc2)=C1 | 42.4 µM | 69.7 µM | 65.3 µM | 55.8 µM | 51.5 µM | 69.3 µM | 95.6 µM | 36.5 µM | 66.3 µM | 55.6 µM | 53.3 µM | <32% | 53.5 µM | 70.1 µM | 69.4 µM | 55.4 µM | <32% | 27.8 µM | 87.1 µM | <32% | GI50 [9]: 67.3 µM; TGI [9]: 81.7 µM
Cc1ccc(-c2cc(C3=CC(=O)C=CC3=O)n(-c3ccc(S(N)(=O)=O)cc3)n2)cc1 | 42.4 µM | 88.8 µM | 65.3 µM | 100 µM | 51.5 µM | 95.5 µM | 99.2 µM | 36.5 µM | 100 µM | 55.6 µM | 86.8 µM | <32% | 53.5 µM | 100 µM | 69.4 µM | 97.3 µM | <32% | 37.4 µM | 94 µM | <32% | GI50 [9]: 67.4 µM; TGI [9]: 100 µM
NS(=O)(=O)c1ccc(-n2nc(-c3ccc(Cl)cc3)cc2C2=CC(=O)C=CC2=O)cc1 | 17.6 µM | 37.4 µM | 23.7 µM | 53 µM | 21.9 µM | 62.6 µM | 92.3 µM | 21.6 µM | 71.9 µM | 23.1 µM | 50.2 µM | <32% | 23.9 µM | 71.1 µM | 26.7 µM | 52.7 µM | <32% | 31.8 µM | 84.6 µM | <32% | GI50 [9]: 26.5 µM; TGI [9]: 65.7 µM
CC(=O)NS(=O)(=O)c1ccc(-n2nc(-c3ccccc3)cc2C2=CC(=O)C=CC2=O)cc1 | 78.4 µM | 100 µM | 100 µM | 100 µM | 78.5 µM | 100 µM | 100 µM | 100 µM | 100 µM | 90 µM | 100 µM | <32% | 100 µM | 100 µM | 92 µM | 100 µM | <32% | 57.8 µM | 91.2 µM | <32% | GI50 [9]: 100 µM; TGI [9]: 100 µM
CC1=NN(c2ccc(Br)cc2)C(=O)C1CC(=O)c1cc(O)ccc1O (stereo not drawn) | 36 µM | 45.5 µM | 25.8 µM | 46 µM | 19.1 µM | 38.2 µM | 49.6 µM | 42.2 µM | 50 µM | 39.8 µM | 46.1 µM | <32% | 38.2 µM | 48.6 µM | 28 µM | 42.6 µM | <32% | 7.75 µM | 35.8 µM | <32% | GI50 [9]: 34.2 µM; TGI [9]: 50 µM
O=C(CC1C(=O)NN(c2ccc(Br)cc2)C1=O)c1cc(O)ccc1O (stereo not drawn) | 17.7 µM | 43.3 µM | 18.8 µM | 40.5 µM | 16.1 µM | 40.9 µM | 49.9 µM | 22.7 µM | 50 µM | 23.7 µM | 46.9 µM | <32% | 21.7 µM | 48.4 µM | 22 µM | 42.4 µM | <32% | 34.1 µM | 50 µM | <32% | GI50 [9]: 26.2 µM; TGI [9]: 44.3 µM
COc1ccc(OC)c(-c2cc(-c3ccccc3)nn2-c2ccc(S(=O)(=O)NC(C)=O)cc2)c1 | 3.74 µM | 18.2 µM | 18.1 µM | 42.6 µM | 9.7 µM | 44.5 µM | 77.1 µM | 12 µM | 28.8 µM | 13.3 µM | 37.6 µM | <32% | 15.3 µM | 49.8 µM | 15.4 µM | 36.2 µM | <32% | 7.4 µM | 53.4 µM | <32% | GI50 [9]: 13.3 µM; TGI [9]: 50.7 µM
COc1ccc(OC)c(-c2cc(-c3ccc(Cl)cc3)nn2-c2ccc(S(=O)(=O)NC(C)=O)cc2)c1 | 8.18 µM | 36 µM | 19.4 µM | 50 µM | 25.4 µM | 70.2 µM | 79.2 µM | 3.61 µM | 21.9 µM | 17.7 µM | 53.2 µM | <32% | 17.7 µM | 52.6 µM | 10.7 µM | 28.7 µM | <32% | 7.45 µM | 50.1 µM | <32% | GI50 [9]: 23.4 µM; TGI [9]: 67.1 µM
Oc1ccc(O)c(-c2cc(-c3ccccc3)nn2-c2ccccc2)c1 | 28.5 µM | 77.4 µM | 18.6 µM | 71.2 µM | 17.1 µM | 75.7 µM | 91.3 µM | 16.7 µM | 100 µM | 22.6 µM | 67.3 µM | <32% | 26.9 µM | 63.6 µM | 22.6 µM | 63.9 µM | <32% | 35.7 µM | 100 µM | <32% | GI50 [9]: 37.6 µM; TGI [9]: 75.2 µM
Oc1ccc(O)c(-c2cc(-c3ccc(Cl)cc3)nn2-c2ccccc2)c1 | 5.75 µM | 16.8 µM | 17.9 µM | 34.6 µM | 9.25 µM | 41.1 µM | 76.1 µM | 14.6 µM | 30.7 µM | 8.86 µM | 32 µM | <32% | 6.85 µM | 33.2 µM | 8.79 µM | 32.5 µM | <32% | 3.43 µM | 49.7 µM | <32% | GI50 [9]: 8.01 µM; TGI [9]: 60.4 µM
NS(=O)(=O)c1ccc(-n2nc(-c3ccccc3)cc2-c2cc(O)ccc2O)cc1 | 75.7 µM | 100 µM | 86.6 µM | 100 µM | 83.9 µM | 96 µM | 100 µM | 77.6 µM | 100 µM | 88.1 µM | 99.3 µM | <32% | 88.9 µM | 100 µM | 61.9 µM | 92 µM | <32% | 49.6 µM | 100 µM | <32% | GI50 [9]: 81.3 µM; TGI [9]: 98.2 µM
NS(=O)(=O)c1ccc(-n2nc(-c3ccc(Cl)cc3)cc2-c2cc(O)ccc2O)cc1 | 15.1 µM | 43.1 µM | 17.8 µM | 35.5 µM | 16.7 µM | 54.5 µM | 76.6 µM | 13.4 µM | 29.8 µM | 12 µM | 35.4 µM | <32% | 13 µM | 39.1 µM | 14.6 µM | 38.9 µM | <32% | 5.03 µM | 61.4 µM | <32% | GI50 [9]: 14.7 µM; TGI [9]: 50.9 µM
CC(=O)NS(=O)(=O)c1ccc(-n2nc(-c3ccccc3)cc2-c2cc(O)ccc2O)cc1 | 78.6 µM | 100 µM | 90.4 µM | 100 µM | 91.3 µM | 100 µM | 100 µM | 100 µM | 100 µM | 78.1 µM | 100 µM | <32% | 93.9 µM | 100 µM | 84.8 µM | 100 µM | <32% | 93.6 µM | 100 µM | <32% | GI50 [9]: 100 µM; TGI [9]: 100 µM
CC(=O)NS(=O)(=O)c1ccc(-n2nc(-c3ccc(Cl)cc3)cc2-c2cc(O)ccc2O)cc1 | 37.6 µM | 66.5 µM | 38.5 µM | 93.9 µM | 55.3 µM | 82.1 µM | 91.2 µM | 17.7 µM | 38.8 µM | 23.5 µM | 59.8 µM | <32% | 36.2 µM | 73.7 µM | 36.2 µM | 60.1 µM | <32% | 37.4 µM | 92.6 µM | <32% | GI50 [9]: 44.6 µM; TGI [9]: 81.2 µM
